One series has as its system Caco-2 cell monolayer. Particulars: literature reports; cited from earlier work.

The values below come from patent publication US20060025346A1, “Permeability enhancer” (priority 2004, published 2006).

Entries after “also recorded” stand apart in the source; their conditions may differ.

Turning to `CCCCCCCCCC(=O)[O-].[Na+]` [sodium caprate], in the series with MDCK cells, the “permeability enhancing effect on high molecular weight model substance FD-10 (relative Papp)” value is listed as “nonspecifically increased the permeability; also recorded: marked permeability enhancing effect”, the “permeability enhancing effect on low molecular weight model substance Flu (relative Papp)” value is on record as “nonspecifically increased the permeability; also recorded: marked permeability enhancing effect” and the “permeability enhancing effect on low molecular weight model substance LY (relative Papp)” value was “nonspecifically increased the permeability; also recorded: marked permeability enhancing effect”. The “side effects / cell damage due to relatively strong ability to open tight junctions” value with Caco-2 cell monolayer is “risk of cell damage have been observed”.
